Results as given in patent US9309242B2, “Substituted pyrido[2,3-b]pyrazines as FGFR kinase inhibitors” (priority 2011, dated 2016).
pIC50: −log10 of the molar value. Like-named read-outs stand apart in the source and are kept apart here.

Experiments:
FGFR2 (h) = FGFR2 (h) (Homo sapiens, UniProt P21802); assay: FGFR2 (enzymatic assay), TR-FRET; format: biochemical; conditions: enzymatic assay, read-out: FGFR 2 pIC50 (converted)
Outline: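 Human FGFR2 (150 ng/ml) was incubated with 500 nM Btn-Flt3 substrate and 0.4 μM ATP in 50 mM HEPES pH 7.5, 6 mM MnCl2, 1 mM DTT, 0.1 mM Na3VO4, 0.01% Triton-X-100. Compound was present at 1% DMSO final.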

[1] = molecular target: T1, Ba/F3-FGFR1-transfected cells (Homo sapiens, UniProt P11362); assay: Ba/F3-FGFR1 (minus IL3) cellular proliferation assay, Alamar Blue; format: cell-based
T1 construct: BAF3-FGFR1 (MIN IL3) pIC50; other: minus IL3
T1 sequence (P11362 whole entry, change not shown): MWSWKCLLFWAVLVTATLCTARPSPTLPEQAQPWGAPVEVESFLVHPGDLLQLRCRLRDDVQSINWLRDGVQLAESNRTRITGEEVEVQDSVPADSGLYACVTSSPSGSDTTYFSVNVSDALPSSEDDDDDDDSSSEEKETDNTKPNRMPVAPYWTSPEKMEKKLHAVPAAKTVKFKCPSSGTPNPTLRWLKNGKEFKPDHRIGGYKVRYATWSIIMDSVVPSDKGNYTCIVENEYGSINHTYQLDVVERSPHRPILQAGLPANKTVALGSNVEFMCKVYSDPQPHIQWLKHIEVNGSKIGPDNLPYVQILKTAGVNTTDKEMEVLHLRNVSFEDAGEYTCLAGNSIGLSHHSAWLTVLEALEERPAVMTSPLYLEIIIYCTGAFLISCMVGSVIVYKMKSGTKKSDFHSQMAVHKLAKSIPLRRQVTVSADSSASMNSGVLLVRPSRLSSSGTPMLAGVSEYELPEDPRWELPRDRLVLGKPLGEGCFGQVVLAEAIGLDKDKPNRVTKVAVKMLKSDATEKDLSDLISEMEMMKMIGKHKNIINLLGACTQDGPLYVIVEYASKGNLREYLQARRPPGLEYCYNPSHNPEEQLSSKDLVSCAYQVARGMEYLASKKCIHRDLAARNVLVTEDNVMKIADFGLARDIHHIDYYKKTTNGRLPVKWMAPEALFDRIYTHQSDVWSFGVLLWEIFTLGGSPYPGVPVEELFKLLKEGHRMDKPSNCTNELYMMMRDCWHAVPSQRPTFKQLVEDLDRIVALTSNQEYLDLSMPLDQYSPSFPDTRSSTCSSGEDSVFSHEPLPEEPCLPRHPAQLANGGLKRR
Outline: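 Read-out: resazurin reduction, fluorescence ex 540 nm/em 590 nm after 4 h Alamar Blue at 37 °C. Before that, FGFR1-transfected Ba/F3 cells (20000/well) sat with compound for 24 h in RPMI-1640/10% FBS/2 mM L-Gln.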

[2] = molecular target: T2, Ba/F3-FGFR3-transfected cells (Homo sapiens, UniProt P22607); assay: Ba/F3-FGFR3 (minus IL3) cellular proliferation assay, Alamar Blue; format: cell-based
T2 construct: BAF3-FGFR3 (MIN IL3) pIC50; other: minus IL3
Outline: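 Read-out: resazurin-based Alamar Blue fluorescence (ex 540 nm, em 590 nm) after a 4 h dye incubation. FGFR3-transfected Ba/F3 cells, 20000 per well, are exposed to compound for 24 h at 37° C in RPMI-1640/10% FBS. Plus-IL3 counterscreen adds 10 ng/ml murine IL3.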

FGFR4 (h) = FGFR4 (h) (Homo sapiens, UniProt P22455); assay: FGFR4 (enzymatic assay), TR-FRET; format: biochemical; conditions: FGFR 4 pIC50, enzymatic assay
FGFR3 (h) = FGFR3 (h) (Homo sapiens, UniProt P22607); assay: FGFR3 (enzymatic assay), TR-FRET; format: biochemical; conditions: read-out: FGFR 3 pIC50 (converted)
Chain of FGFR3 (h) (P22607 23-806): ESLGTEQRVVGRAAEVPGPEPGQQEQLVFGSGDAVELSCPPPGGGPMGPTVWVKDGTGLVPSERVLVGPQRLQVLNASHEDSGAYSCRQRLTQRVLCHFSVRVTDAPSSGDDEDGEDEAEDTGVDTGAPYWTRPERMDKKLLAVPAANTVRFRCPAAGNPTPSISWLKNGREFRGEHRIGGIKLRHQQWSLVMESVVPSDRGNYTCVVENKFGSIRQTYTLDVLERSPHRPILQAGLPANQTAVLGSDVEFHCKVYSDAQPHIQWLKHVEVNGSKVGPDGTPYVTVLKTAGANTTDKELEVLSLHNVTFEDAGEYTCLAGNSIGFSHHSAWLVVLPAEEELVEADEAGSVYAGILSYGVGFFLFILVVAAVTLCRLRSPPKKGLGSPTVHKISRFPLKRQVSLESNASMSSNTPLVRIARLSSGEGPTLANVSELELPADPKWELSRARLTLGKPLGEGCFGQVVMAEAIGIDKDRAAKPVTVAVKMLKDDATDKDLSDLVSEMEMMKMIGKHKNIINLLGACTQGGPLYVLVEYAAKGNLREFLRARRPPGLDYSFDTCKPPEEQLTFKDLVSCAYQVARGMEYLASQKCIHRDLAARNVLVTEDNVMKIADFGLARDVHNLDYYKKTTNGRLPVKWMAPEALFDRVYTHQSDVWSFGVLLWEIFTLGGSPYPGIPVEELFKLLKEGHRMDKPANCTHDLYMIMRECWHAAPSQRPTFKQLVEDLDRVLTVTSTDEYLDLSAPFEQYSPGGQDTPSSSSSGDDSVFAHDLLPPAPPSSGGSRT
Excerpt: Time-Resolved Fluorescence Resonance Energy Transfer (TR-FRET) signal (ex340 nm.

FGFR1 (h) = FGFR1 (h) (Homo sapiens, UniProt P11362); assay: FGFR1 (enzymatic assay), TR-FRET; format: biochemical; conditions: read-out: FGFR 1 pIC50 (converted)
Chain of FGFR1 (h) (P11362 22-822): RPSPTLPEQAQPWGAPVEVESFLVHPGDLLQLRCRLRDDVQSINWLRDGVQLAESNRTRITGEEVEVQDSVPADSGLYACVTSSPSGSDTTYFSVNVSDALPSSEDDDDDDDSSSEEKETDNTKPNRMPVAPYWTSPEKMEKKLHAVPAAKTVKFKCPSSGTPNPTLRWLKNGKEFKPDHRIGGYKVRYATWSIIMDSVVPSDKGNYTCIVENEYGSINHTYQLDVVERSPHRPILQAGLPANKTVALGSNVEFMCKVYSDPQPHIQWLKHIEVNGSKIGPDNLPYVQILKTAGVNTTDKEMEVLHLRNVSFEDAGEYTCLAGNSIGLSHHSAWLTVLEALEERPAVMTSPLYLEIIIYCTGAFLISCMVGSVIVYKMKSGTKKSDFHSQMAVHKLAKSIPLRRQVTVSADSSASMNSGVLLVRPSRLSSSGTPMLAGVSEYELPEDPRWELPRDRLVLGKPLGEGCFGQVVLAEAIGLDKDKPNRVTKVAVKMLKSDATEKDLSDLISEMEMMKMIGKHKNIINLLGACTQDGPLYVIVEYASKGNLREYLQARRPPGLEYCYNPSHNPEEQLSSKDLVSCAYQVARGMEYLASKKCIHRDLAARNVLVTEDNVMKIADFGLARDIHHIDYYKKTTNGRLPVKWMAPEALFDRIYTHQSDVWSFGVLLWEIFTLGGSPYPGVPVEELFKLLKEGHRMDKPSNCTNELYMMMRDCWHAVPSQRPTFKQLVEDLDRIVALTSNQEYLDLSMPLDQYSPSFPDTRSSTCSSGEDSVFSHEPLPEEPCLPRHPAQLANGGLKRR

[3] = molecular target: Ba/F3-FGFR4-transfected cells (Homo sapiens, UniProt P22455); assay: Ba/F3-FGFR4 cellular proliferation assay, Alamar Blue; format: cell-based
Outline: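 Proliferation of Ba/F3-FGFR4-transfected cells is gauged by Alamar Blue (resazurin) fluorescence after 24 hours of compound treatment in phenol red free RPMI-1640 with 10% FBS.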

[4] = test system: Ba/F3-FGFR1-transfected cells; assay: Ba/F3-FGFR1 (plus IL3) cellular proliferation assay, counterscreen with 10 ng/ml murine IL3; format: cell-based; conditions: plus IL3 (10 ng/ml murine IL3, counterscreen); read-out: BAF3-FGFR1 (PLUS IL3) pIC50 (converted)
Outline: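 Ba/F3-FGFR1 cells (20000/well) in RPMI-1640 with 10% FBS exposed to compound for 24 h at 37° C., 5% CO2, then Alamar Blue (resazurin) added for 4 h; fluorescence read at ex 540/em 590 nm. Counterscreen run identically with 10 ng/ml murine IL3.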

[5] = test system: Ba/F3-KDR-transfected cells; assay: Ba/F3-KDR (plus IL3) cellular proliferation assay, counterscreen with 10 ng/ml murine IL3; format: cell-based; conditions: plus IL3 (10 ng/ml murine IL3, counterscreen); read-out: BAF3-KDR (PLUS IL3) pIC50 (converted)
Outline: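 Proliferation is measured as Alamar Blue relative fluorescence units following 24 h compound treatment of 20000 cells per well in 10% FBS medium. The IL3-supplemented run serves as a counterscreen under the same conditions.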

KDR (h) = KDR (h) (Homo sapiens, UniProt P35968); assay: KDR (VEGFR2) (enzymatic assay), TR-FRET; format: biochemical; conditions: read-out: VEGFR 2 (KDR) pIC50 (converted)
Chain of KDR (h) (P35968 20-1356): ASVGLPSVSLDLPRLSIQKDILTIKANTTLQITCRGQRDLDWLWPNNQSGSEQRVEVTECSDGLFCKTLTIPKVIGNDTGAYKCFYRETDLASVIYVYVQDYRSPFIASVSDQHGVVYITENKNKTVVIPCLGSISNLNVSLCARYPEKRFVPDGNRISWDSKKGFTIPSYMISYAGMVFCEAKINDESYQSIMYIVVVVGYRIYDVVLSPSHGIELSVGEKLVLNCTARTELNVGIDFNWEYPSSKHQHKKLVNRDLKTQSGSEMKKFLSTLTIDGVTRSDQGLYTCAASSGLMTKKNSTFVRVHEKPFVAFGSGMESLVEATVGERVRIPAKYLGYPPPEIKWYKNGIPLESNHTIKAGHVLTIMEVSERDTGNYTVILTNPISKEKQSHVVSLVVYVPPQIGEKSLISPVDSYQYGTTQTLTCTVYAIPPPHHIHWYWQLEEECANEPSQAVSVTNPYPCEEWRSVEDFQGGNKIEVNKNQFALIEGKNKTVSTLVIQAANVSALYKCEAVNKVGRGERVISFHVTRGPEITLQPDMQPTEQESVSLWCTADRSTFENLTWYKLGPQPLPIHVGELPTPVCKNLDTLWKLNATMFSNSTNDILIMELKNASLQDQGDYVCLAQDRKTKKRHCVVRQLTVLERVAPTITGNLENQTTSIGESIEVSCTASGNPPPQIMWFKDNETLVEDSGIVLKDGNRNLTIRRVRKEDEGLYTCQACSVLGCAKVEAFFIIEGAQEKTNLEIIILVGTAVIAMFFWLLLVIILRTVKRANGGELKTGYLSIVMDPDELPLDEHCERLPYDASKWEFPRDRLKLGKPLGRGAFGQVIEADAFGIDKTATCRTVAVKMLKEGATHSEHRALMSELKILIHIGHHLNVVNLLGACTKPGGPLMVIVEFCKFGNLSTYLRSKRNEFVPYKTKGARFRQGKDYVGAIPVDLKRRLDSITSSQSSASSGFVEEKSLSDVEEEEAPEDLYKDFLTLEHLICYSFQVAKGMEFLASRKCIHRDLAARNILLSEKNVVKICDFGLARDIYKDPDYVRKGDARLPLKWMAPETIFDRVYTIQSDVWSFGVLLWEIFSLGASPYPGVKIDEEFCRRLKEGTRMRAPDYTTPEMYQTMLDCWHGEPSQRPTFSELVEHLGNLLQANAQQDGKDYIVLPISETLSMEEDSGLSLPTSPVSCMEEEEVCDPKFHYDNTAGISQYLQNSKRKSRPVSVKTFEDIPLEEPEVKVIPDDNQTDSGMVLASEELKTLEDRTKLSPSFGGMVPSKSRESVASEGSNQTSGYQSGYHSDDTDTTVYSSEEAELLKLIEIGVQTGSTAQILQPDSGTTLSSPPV
Outline: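 First, kinase (150 ng/ml), Btn-Flt3 (500 nM), ATP (3 μM) and compound (1% DMSO) react 120 min at RT in pH 7.5 HEPES/6 mM MnCl2. Next, EDTA with Eu-anti-P-Tyr and SA-XL-665 stops it for 60 min. Finally, TR-FRET is read as RFU.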

[6] = average values if tested multiple times

Chain of FGFR2 (h) (P21802 22-821): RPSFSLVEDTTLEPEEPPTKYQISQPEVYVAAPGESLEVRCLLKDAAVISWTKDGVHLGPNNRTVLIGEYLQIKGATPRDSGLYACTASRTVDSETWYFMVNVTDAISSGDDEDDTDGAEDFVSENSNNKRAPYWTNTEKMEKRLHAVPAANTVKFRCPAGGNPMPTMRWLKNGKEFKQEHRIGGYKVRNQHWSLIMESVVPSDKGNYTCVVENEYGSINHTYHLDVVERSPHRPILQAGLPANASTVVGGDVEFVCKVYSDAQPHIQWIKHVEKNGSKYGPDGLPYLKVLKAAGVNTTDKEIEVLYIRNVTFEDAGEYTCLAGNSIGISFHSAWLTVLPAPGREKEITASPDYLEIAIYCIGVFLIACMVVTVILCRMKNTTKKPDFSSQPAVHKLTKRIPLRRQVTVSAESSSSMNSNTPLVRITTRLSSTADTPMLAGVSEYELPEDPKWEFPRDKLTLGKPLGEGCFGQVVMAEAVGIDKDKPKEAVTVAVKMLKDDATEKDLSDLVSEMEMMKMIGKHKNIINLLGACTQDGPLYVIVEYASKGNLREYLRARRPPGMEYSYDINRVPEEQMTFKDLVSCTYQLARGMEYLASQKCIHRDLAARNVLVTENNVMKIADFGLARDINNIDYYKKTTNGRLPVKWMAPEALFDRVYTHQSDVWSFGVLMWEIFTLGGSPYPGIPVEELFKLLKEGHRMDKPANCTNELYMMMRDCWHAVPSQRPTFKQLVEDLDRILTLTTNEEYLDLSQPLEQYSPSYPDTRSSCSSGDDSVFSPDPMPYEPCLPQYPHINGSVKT

CNCCN(c1ccc2ncc(-c3cnn(C)c3)nc2n1)c1c(F)c(OC)cc(OC)c1F [Compound 3]
IC50 (FGFR2 (h); [6]): 3.09 nM | BAF3-FGFR1 (MIN IL3) pIC50 [1]: 8.38 | BAF3-FGFR3 (MIN IL3) pIC50 [2]: ~8.04 | pIC50 (FGFR4 (h); [6]): 8.19 | IC50 (FGFR3 (h); [6]): 2.57 nM | IC50 (FGFR1 (h); [6]): 1.35 nM | BAF3-FGFR4 pIC50 [3]: 7.37 | IC50 [4]: > 10000 nM | IC50 [5]: > 10000 nM | IC50 (KDR (h); [6]): 21.9 nM

COCC(O)CN(c1ccc2ncc(-c3cnn(C)c3)nc2n1)c1c(F)c(OC)cc(OC)c1F (centres unmarked) [Compound 50]
IC50 (FGFR2 (h); [6]): 3.89 nM | BAF3-FGFR1 (MIN IL3) pIC50 [1]: 8.10 | BAF3-FGFR3 (MIN IL3) pIC50 [2]: ~8.11 | pIC50 (FGFR4 (h); [6]): 8.49 | IC50 (FGFR3 (h); [6]): 3.63 nM | IC50 (FGFR1 (h); [6]): 1.74 nM | BAF3-FGFR4 pIC50 [3]: 7.66 | IC50 [4]: > 10000 nM | IC50 [5]: > 10000 nM | IC50 (KDR (h); [6]): 21.9 nM

COc1cc(OC)c(F)c(N(Cc2nc[nH]n2)c2ccc3ncc(-c4cnn(C)c4)nc3n2)c1 [Compound 86]
IC50 (FGFR2 (h); [6]): 1.41 nM | BAF3-FGFR1 (MIN IL3) pIC50 [1]: 7.74 | BAF3-FGFR3 (MIN IL3) pIC50 [2]: ~7.90 | pIC50 (FGFR4 (h); [6]): 8.95 | IC50 (FGFR3 (h); [6]): 1 nM | IC50 (FGFR1 (h); [6]): 1.26 nM | BAF3-FGFR4 pIC50 [3]: 7.33 | IC50 [4]: > 10000 nM | IC50 [5]: > 10000 nM | IC50 (KDR (h); [6]): 7.59 nM

COc1cc(OC)cc(N(CCCN2CCCC2=O)c2ccc3ncc(-c4cnn(C)c4)nc3n2)c1 [Compound 134]
IC50 (FGFR2 (h)): 3.09 nM | BAF3-FGFR1 (MIN IL3) pIC50 [1]: 6.43 | BAF3-FGFR3 (MIN IL3) pIC50 [2]: ~6.64 | pIC50 (FGFR4 (h)): 7.93 | IC50 (FGFR3 (h)): 3.8 nM | IC50 (FGFR1 (h)): 8.71 nM | BAF3-FGFR4 pIC50 [3]: 5.99 | IC50 [4]: > 10000 nM | IC50 [5]: > 10000 nM | IC50 (KDR (h)): 35.5 nM

COc1cc(OC)c(F)c(N(Cc2nc[nH]n2)c2ccc3ncc(-c4cnn(C)c4)nc3n2)c1F [Compound 85]
IC50 (FGFR2 (h); [6]): 2.04 nM | BAF3-FGFR1 (MIN IL3) pIC50 [1]: 8.28 | BAF3-FGFR3 (MIN IL3) pIC50 [2]: 8.14 | pIC50 (FGFR4 (h); [6]): 8.65 | IC50 (FGFR3 (h); [6]): 2.14 nM | IC50 (FGFR1 (h); [6]): 1.02 nM | BAF3-FGFR4 pIC50 [3]: 7.66 | IC50 [4]: > 10000 nM | IC50 [5]: > 10000 nM | IC50 (KDR (h); [6]): 6.76 nM

COc1cc(OC)c(F)c(N(CC2CCC(=O)N2)c2ccc3ncc(-c4cnn(C)c4)nc3n2)c1 (centres unmarked) [Compound 46]
IC50 (FGFR2 (h); [6]): 2.45 nM | BAF3-FGFR1 (MIN IL3) pIC50 [1]: 7.33 | BAF3-FGFR3 (MIN IL3) pIC50 [2]: 7.42 | pIC50 (FGFR4 (h); [6]): 8.41 | IC50 (FGFR3 (h); [6]): 1.51 nM | IC50 (FGFR1 (h); [6]): 1.82 nM | BAF3-FGFR4 pIC50 [3]: 6.76 | IC50 [4]: > 10000 nM | IC50 [5]: > 10000 nM | IC50 (KDR (h); [6]): 41.7 nM

COc1cc(/N=c2\ccc3ncc(-c4cnn(C)c4)nc3n2CCCN2CCCC2=O)c(F)c(OC)c1 [Compound 119]
IC50 (FGFR2 (h)): 1.86 nM | BAF3-FGFR1 (MIN IL3) pIC50 [1]: ~7.92 | BAF3-FGFR3 (MIN IL3) pIC50 [2]: ~8.07 | pIC50 (FGFR4 (h)): 9.00 | IC50 (FGFR3 (h)): 0.708 nM | IC50 (FGFR1 (h)): 1.41 nM | BAF3-FGFR4 pIC50 [3]: 7.28 | IC50 [4]: > 3980 nM | IC50 [5]: > 3980 nM | IC50 (KDR (h)): 6.17 nM

COc1cc(OC)c(F)c(N(c2ccc3ncc(-c4cnn(C)c4)nc3n2)C(CO)COC(C)C)c1 (single isomer, unassigned) [Compound 76]
IC50 (FGFR2 (h); [6]): 468 nM | BAF3-FGFR1 (MIN IL3) pIC50 [1]: 5.55 | BAF3-FGFR3 (MIN IL3) pIC50 [2]: 5.64 | pIC50 (FGFR4 (h); [6]): 6.67 | IC50 (FGFR3 (h); [6]): 105 nM | IC50 (FGFR1 (h); [6]): 302 nM | BAF3-FGFR4 pIC50 [3]: 5.20 | IC50 [4]: > 10000 nM | IC50 [5]: > 10000 nM | IC50 (KDR (h); [6]): > 1000 nM
